Source: US20240018125A1, “CYCLIC ISOTHIOUREA DERIVATIVES AS CXCR4 MODULATORS” (ERMIUM THERAPEUTICS, priority 2020, published 2024)
Structures can show the parent of a compound that is named as a salt. Where two headings read alike, the source gives them in different places.

Test system: peripheral blood mononuclear cells (PBMCs) from healthy donors
Assay: IFN production by R848-activated PBMCs, quantified with twINNE luciferase reporter cell line
Type: cell-based, human
Settings: read-out: IC50 of anti-inflammatory activity (IFN production by activated PBMCs)
Procedure, shortened: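 Functional IFN was quantified by luciferase output from the twINNE ISRE-reporter line after 24 h on conditioned supernatants. Those supernatants came from human PBMCs (4.10^6/mL) pre-treated with compound and then stimulated for 24 h with 5 μg/mL resiquimod. IC50s were fitted by nonlinear variable-slope regression.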

Row | SMILES | IC50 (Homo sapiens, PBMC) [µM] | IC50 (PBMCs from 2 healthy donors, R848 5 μg/mL, IFN in supernatant by twINNE luciferase reporter, IT1t value is mean of at least 7 independent sets) [µM]
1 | CCCCN1CCN=C1SCC1=CSC2=NCc3ccccc3CN12 [Example 37, 3-(((1-butyl-4,5-dihydro-1H-imidazol-2-yl)thio)methyl)-5,10-dihydrobenzo[e]thiazolo[3,2-a][1,3]diazepine dihydrochloride] | ≤ 10 | 
2 | C1=C(CSC2=N[C@@H]3CCCC[C@H]3N2)N2Cc3ccccc3N=C2S1 [Example 32, 3-((((3aR,7aR)-3a,4,5,6,7,7a-hexahydro-1H-benzo[d]imidazol-2-yl)thio)methyl)-5H-thiazolo[2,3-b]quinazoline dihydrochloride] | ≤ 10 | 
3 | Clc1cccc(C[C@H]2CN3C(CSC4=NCc5ccccc5N4)=CSC3=N2)c1 [Example 111, (S)-6-(3-chlorobenzyl)-3-(((1,4-dihydroquinazolin-2-yl)thio)methyl)-5,6-dihydroimidazo[2,1-b]thiazole dihydrochloride] | ≤ 10 | 
4 | CC1(C)CN=C(SCC2=CSC3=Nc4cc(Cl)ccc4CN23)N1 [Example 9, 8-chloro-3-(((5,5-dimethyl-4,5-dihydro-1H-imidazol-2-yl)thio)methyl)-5H-thiazolo[2,3-b]quinazoline dihydrochloride] | 10 to 32 | 
5 | C1=C(CSC2=NCc3ccccc3N2)N2CC(C3CCCCC3)N=C2S1 (centres unmarked) [Example 15, 6-cyclohexyl-3-(((3,4-dihydroquinazolin-2-yl)thio)methyl)-5,6-dihydroimidazo[2,1-b]thiazole dihydrochloride] | ≤ 10 | 
6 | CC1(C)CN2C(CSC(=NC3CCCCC3)NC3CCCCC3)=CSC2=N1 [IT1t, reference compound] |  | 32
7 | Clc1ccc2c(c1)CN1C(CSC3=NCC4CCCCN34)=CSC1=N2 (centres unmarked) [Example 49, 7-chloro-3-(((1,5,6,7,8,8a-hexahydroimidazo[1,5-a]pyridin-3-yl)thio)methyl)-5H-thiazolo[2,3-b]quinazoline dihydrochloride] | ≤ 10 | 
8 | CN1CCCC1CSC1=NCC(Cc2ccccc2)N1 (centres unmarked) [Example 53, 5-benzyl-2-(((1-methylpyrrolidin-2-yl)methyl)thio)-4,5-dihydro-1H-imidazole dihydrochloride] | 10 to 32 | 
9 | Clc1ccc2c(c1)CN1C(CSC3=NCC(Cc4cccs4)N3)=CSC1=N2 (centres unmarked) [Example 64, 7-chloro-3-(((5-(thiophen-2-ylmethyl)-4,5-dihydro-1H-imidazol-2-yl)thio)methyl)-5H-thiazolo[2,3-b]quinazoline dihydrochloride] | ≤ 10 | 
10 | Clc1ccc2c(c1)CN1C(CSC3=NCc4cccc(Br)c4N3)=CSC1=N2 [Example 92, 3-(((8-bromo-1,4-dihydroquinazolin-2-yl)thio)methyl)-7-chloro-5H-thiazolo[2,3-b]quinazoline dihydrochloride] | ≤ 10 | 
11 | Clc1ccc2c(c1)CN1C(CSC3=NCCc4ccccc4N3)=CSC1=N2 [Example 76, 7-chloro-3-(((4,5-dihydro-1H-benzo[d][1,3]diazepin-2-yl)thio)methyl)-5H-thiazolo[2,3-b]quinazoline dihydrochloride] | 10 to 32 | 
12 | CCCCN1C(SCC2=CSC3=NC(Cc4ccccc4)CN23)=NCc2ccccc21 (centres unmarked) [Example 99, 6-benzyl-3-(((1-butyl-1,4-dihydroquinazolin-2-yl)thio)methyl)-5,6-dihydroimidazo[2,1-b]thiazole dihydrochloride] | ≤ 10 | 
13 | Brc1ccc2c(c1)NC(SCC1=CSC3=NC(Cc4ccccc4)CN13)=NC2 (centres unmarked) [Example 119, 6-benzyl-3-(((7-bromo-1,4-dihydroquinazolin-2-yl)thio)methyl)-5,6-dihydroimidazo[2,1-b]thiazole dihydrochloride] | ≤ 10 | 
14 | CC1CCCN1CCSC1=NCc2ccccc2N1 (centres unmarked) [Example 130, 2-((2-(2-methylpyrrolidin-1-yl)ethyl)thio)-1,4-dihydroquinazoline dihydrochloride] | ≤ 10 | 
15 | CC1(C)N=C(SCC2=CSC3=NCc4ccccc4CN23)Nc2ccccc21 [Example 21, 3-(((4,4-dimethyl-1,4-dihydroquinazolin-2-yl)thio)methyl)-5,10-dihydrobenzo[e]thiazolo[3,2-a][1,3]diazepine dihydrochloride] | ≤ 10 | 
16 | COc1ccc(C[C@@H]2CN3C(CSC4=NCc5ccccc5N4)=CSC3=N2)cc1 [Example 124, (R)-3-(((1,4-dihydroquinazolin-2-yl)thio)methyl)-6-(4-methoxybenzyl)-5,6-dihydroimidazo[2,1-b]thiazole dihydrochloride] | ≤ 10 | 
17 | c1ccc2c(c1)CCN=C(SCCN1CCc3ccccc31)N2 [Example 192, 2-((2-(indolin-1-yl)ethyl)thio)-4,5-dihydro-1H-benzo[d][1,3]diazepine hydrochloride] | 10 to 32 | 
18 | COc1ccc(CC2(C)CN=C(SCCN3CCCC3)N2)cc1 (centres unmarked) [Example 183, 5-(4-methoxybenzyl)-5-methyl-2-((2-(pyrrolidin-1-yl)ethyl)thio)-4,5-dihydro-1H-imidazole dihydrochloride] | > 32 | 
19 | c1ccc2c(c1)CN=C(SCCCCN1CCCC1)N2 [Example 137, 2-((4-(pyrrolidin-1-yl)butyl)thio)-1,4-dihydroquinazoline dihydrochloride] | 10 to 32 | 

Row | SMILES | IC50 (Homo sapiens, PBMC) [µM] | IC50 (PBMCs from 2 healthy donors, R848 5 μg/mL, IFN in supernatant by twINNE luciferase reporter, IT1t value is mean of at least 7 independent sets) [µM]
20 | c1ccc(C2CCN(CCSC3=NCc4ccccc4N3)C2)cc1 (centres unmarked) [Example 140, 2-((2-(3-phenylpyrrolidin-1-yl)ethyl)thio)-1,4-dihydroquinazoline dihydrochloride] | ≤ 10 | 
21 | c1ccc2c(c1)CN=C(SCCN1CCCC1)NC2 [Example 186, 3-((2-(pyrrolidin-1-yl)ethyl)thio)-2,5-dihydro-1H-benzo[e][1,3]diazepine dihydrochloride] | > 32 | 
22 | Clc1ccc2c(c1)CN1C(CSC3=NCC4(CC4)N3)=CSC1=N2 [Example 68, 3-(((4,6-diazaspiro[2.4]hept-5-en-5-yl)thio)methyl)-7-chloro-5H-thiazolo[2,3-b]quinazoline dihydrochloride] | ≤ 10 | 
23 | CC(C)(C)OC(=O)N1CC[C@H](SC2=NCCc3ccccc3N2)C1 [Example 198, tert-butyl (S)-3-((4,5-dihydro-1H-benzo[d][1,3]diazepin-2-yl)thio)pyrrolidine-1-carboxylate] | 10 to 32 | 
24 | CC1N=C(SCC2=CSC3=NC(Cc4ccccc4)CN23)Nc2ccccc21 (centres unmarked) [Example 113, 6-benzyl-3-(((4-methyl-1,4-dihydroquinazolin-2-yl)thio)methyl)-5,6-dihydroimidazo[2,1-b]thiazole dihydrochloride] | ≤ 10 | 
25 | Fc1cc(Cl)cc2c1N=C1SC=C(CSC3=NCc4ccccc4N3)N1C2 [Example 86, 7-chloro-3-(((1,4-dihydroquinazolin-2-yl)thio)methyl)-9-fluoro-5H-thiazolo[2,3-b]quinazoline dihydrochloride] | ≤ 10 | 
26 | Clc1ccc2c(c1)CN=C(SCC1=CSC3=Nc4ccccc4CN13)N2 [Example 39, 3-(((6-chloro-1,4-dihydroquinazolin-2-yl)thio)methyl)-5H-thiazolo[2,3-b]quinazoline dihydrochloride] | ≤ 10 | 
27 | CCCCC1CN=C(SCC2=CSC3=Nc4ccc(Cl)cc4CN23)N1 (centres unmarked) [Example 41, 3-(((5-butyl-4,5-dihydro-1H-imidazol-2-yl)thio)methyl)-7-chloro-5H-thiazolo[2,3-b]quinazoline dihydrochloride] | ≤ 10 | 
28 | Brc1ccc2c(c1)CN=C(SCCCCN1CCCC1)N2 [Example 163, 6-bromo-2-((4-(pyrrolidin-1-yl)butyl)thio)-1,4-dihydroquinazoline dihydrochloride] | ≤ 10 | 
29 | CCCCN1Cc2ccccc2N=C1SCC1=CSC2=NC(Cc3ccccc3)CN12 (centres unmarked) [Example 93, 6-benzyl-3-(((3-butyl-3,4-dihydroquinazolin-2-yl)thio)methyl)-5,6-dihydroimidazo[2,1-b]thiazole dihydrochloride] | ≤ 10 | 
30 | c1ccc(CC2CN=C(SCCN3CCCCC3)N2)cc1 (centres unmarked) [Example 50, 1-(2-((5-benzyl-4,5-dihydro-1H-imidazol-2-yl)thio)ethyl)piperidine dihydrochloride] | > 32 | 
31 | c1ccc2c(c1)CN=C(SC1CCC[C@H]1N1CCCC1)N2 (stereo partly drawn) [Example 141, 2-(((2R)-2-(pyrrolidin-1-yl)cyclopentyl)thio)-1,4-dihydroquinazoline dihydrochloride] | 10 to 32 | 
32 | c1ccc2c(c1)CN=C(SCCN1CCCCCC1)N2 [Example 90, 2-((2-(azepan-1-yl)ethyl)thio)-1,4-dihydroquinazoline dihydrochloride] | ≤ 10 | 
33 | FC1(F)CC12CCN(CCSC1=NCc3ccccc3N1)C2 (centres unmarked) [Example 132, 2-((2-(1,1-difluoro-5-azaspiro[2.4]heptan-5-yl)ethyl)thio)-3,4-dihydroquinazoline] | 10 to 32 | 
34 | Fc1cccc2c1CN=C(SCC1=CSC3=Nc4ccc(Cl)cc4CN13)N2 [Example 80, 7-chloro-3-(((5-fluoro-1,4-dihydroquinazolin-2-yl)thio)methyl)-5H-thiazolo[2,3-b]quinazoline dihydrochloride] | ≤ 10 | 
35 | C1=C(CSC2=NCc3ccccc3N2)N2Cc3cccnc3N=C2S1 [Example 28, 3-(((3,4-dihydroquinazolin-2-yl)thio)methyl)-5H-pyrido[2,3-d]thiazolo[3,2-a]pyrimidine trihydrochloride] | ≤ 10 | 
36 | CN1CCCC1CCCSC1=NCc2cc(Cl)ccc2N1 (centres unmarked) [Example 174, 6-chloro-2-((3-(1-methylpyrrolidin-2-yl)propyl)thio)-1,4-dihydroquinazoline dihydrochloride] | ≤ 10 | 
37 | CC1CCN(CCSC2=NCc3ccccc3N2)C1 (centres unmarked) [Example 138, 2-((2-(3-methylpyrrolidin-1-yl)ethyl)thio)-1,4-dihydroquinazoline dihydrochloride] | ≤ 10 | 
38 | C1=C(CSC2=NCCc3ccccc3N2)N2CC(Cc3ccccc3)N=C2S1 (centres unmarked) [Example 88, 6-benzyl-3-(((4,5-dihydro-1H-benzo[d][1,3]diazepin-2-yl)thio)methyl)-5,6-dihydroimidazo[2,1-b]thiazole dihydrochloride] | ≤ 10 | 
